Results: patent publication US20240254138A1, “TRICYCLIC PYRIMIDINES AS CYCLIN-DEPENDENT KINASE 7 (CDK7) INHIBITORS” (JANSSEN PHARMACEUTICA NV, priority 2021, published 2024)
Where two headings read alike, the source gives them in different places.

Assays:
[1] = test system: RNA Polymerase II Serine 5 phosphorylation (Rpb1 CTD, downstream substrate of CDK7) in A549 cells; assay: Imaging-based cellular RNA PolII Ser5 phosphorylation assay in A549 cells; assay type: cell-based, human; conditions: wild-type CDK7, RNA PolII Ser5 phosphorylation, averaged over all measurements; for IC50: Homo sapiens, A549, A549 cells, read-out: CDK7_A549 Wild-type CDK7 (pIC50) (converted); for CDK7_A549 Wild-type CDK7 (pIC50): A549 cells
Outline: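 IC50 derived by fitting % control (DMSO high, 10 μM reference low) against concentration, with Hill slope. Readout: high-content imaging of phospho-Ser5 Rpb1 CTD antibody staining in fixed, permeabilized A549 cells exposed to compound 3 h after 20 h culture in 1% FBS DMEM.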

[2] = test system: RNA Polymerase II Serine 5 phosphorylation in A549 cells overexpressing CDK7-mutant (C312S); assay: Imaging-based cellular RNA PolII Ser5 phosphorylation assay in A549 cells overexpressing CDK7-mutant (C312S); assay type: cell-based, human; conditions: RNA PolII Ser5 phosphorylation, averaged over all measurements; for IC50: Homo sapiens, A549, A549 cells overexpressing CDK7-mutant (C312S), read-out: CDK7_A549 mutant hCDK7(pIC50) (converted); for CDK7_A549 mutant hCDK7(pIC50): A549 cells overexpressing CDK7-mutant (C312S)
Outline: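 Readout was automated imaging of anti-phospho-Ser5 Rpb1 CTD immunofluorescence, with IC50 fitted to % control versus concentration. Cells were A549 stably overexpressing non-covalently targetable CDK7 C312S alongside wild-type, exposed to compound 3 h at 37 °C. DMSO and 10 μM reference compound served as controls.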

[3] = molecular target: CDK7/cyclinH/MAT1 trimeric complex (Homo sapiens, UniProt P50613); assay: In vitro CDK7 assay, potency of irreversible covalent inhibitors (kinact/KI), coupled PK/LDH ADP readout at 340 nm
Chain of CDK7/cyclinH/MAT1 trimeric complex (P50613 whole entry): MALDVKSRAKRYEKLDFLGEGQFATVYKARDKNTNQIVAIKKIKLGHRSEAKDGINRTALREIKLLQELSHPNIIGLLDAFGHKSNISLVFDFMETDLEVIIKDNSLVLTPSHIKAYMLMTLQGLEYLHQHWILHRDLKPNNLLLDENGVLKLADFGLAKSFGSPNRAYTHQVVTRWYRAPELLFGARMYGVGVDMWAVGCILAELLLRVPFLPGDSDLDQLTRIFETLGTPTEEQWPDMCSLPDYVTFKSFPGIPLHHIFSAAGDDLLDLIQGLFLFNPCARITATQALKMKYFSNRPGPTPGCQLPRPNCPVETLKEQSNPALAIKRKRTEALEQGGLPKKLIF
Chain of CDK7/cyclinH/MAT1 trimeric complex (P51946 whole entry partner): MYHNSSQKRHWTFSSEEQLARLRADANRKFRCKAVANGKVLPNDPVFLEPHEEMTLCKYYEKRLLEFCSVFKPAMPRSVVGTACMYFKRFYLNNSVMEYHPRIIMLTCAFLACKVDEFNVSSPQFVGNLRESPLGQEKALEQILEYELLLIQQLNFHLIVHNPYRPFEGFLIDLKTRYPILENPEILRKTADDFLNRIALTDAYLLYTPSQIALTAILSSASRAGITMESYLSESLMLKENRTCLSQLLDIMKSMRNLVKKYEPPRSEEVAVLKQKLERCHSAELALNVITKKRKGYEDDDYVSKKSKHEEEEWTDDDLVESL
Chain of CDK7/cyclinH/MAT1 trimeric complex (P51948 whole entry partner): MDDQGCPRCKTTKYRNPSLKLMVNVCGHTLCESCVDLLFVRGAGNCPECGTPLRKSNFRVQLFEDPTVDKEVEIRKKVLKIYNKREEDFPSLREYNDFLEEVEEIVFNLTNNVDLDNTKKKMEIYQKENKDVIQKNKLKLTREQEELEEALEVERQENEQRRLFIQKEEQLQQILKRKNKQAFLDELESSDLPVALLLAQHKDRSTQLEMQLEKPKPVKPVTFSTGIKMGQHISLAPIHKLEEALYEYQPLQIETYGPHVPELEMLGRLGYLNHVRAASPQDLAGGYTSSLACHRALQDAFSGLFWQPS

[4] = read-out: CDK7 (20 nM enz.) (kinact/KI, M^−1*s^−1), 20 nM enzyme
[5] = CDK7 (20 nM enz.) (KI, μM), 20 nM enzyme
[6] = read-out: CDK7 (20 nM enz.) (kinact, s^−1), 20 nM enzyme
[7] = read-out: CDK7 (20 nM enz.) (kobs/[I], M^−1*s^−1), 20 nM enzyme
[8] = read-out: CDK7 (kinact/KI, M^−1*s^−1), potency of irreversible covalent inhibitors, 1 mM ATP, room temperature, averaged values over all measurements
[9] = CDK7 (KI(μM)), […], 1 mM ATP, room temperature, averaged values over all measurements
[10] = read-out: CDK7 (kinact, s^−1), kinact = maximal rate of inactivation, 1 mM ATP, room temperature, averaged values over all measurements

Row | SMILES | IC50 [1] [nM] | IC50 [2] [nM] | kinact/KI [3, 4] [M⁻¹ s⁻¹] | Ki [3, 5] [µM] | kinact [3, 6] [s⁻¹] | other results
1 | C=CC(=O)N1CC(N2CCC(c3cc4c(c(C)n3)O[C@@H](C)c3c(N5CCOCC5)ccnc3N4)CC2)C1 (single isomer, unassigned) [Compound 265] | 2090 | > 10000 | – | – | – | melting point: 288.5 °C
2 | CC#CC(=O)N1CCC(N2CC(c3cc4c(c(C(F)(F)F)n3)OCc3c(N5CCOCC5)ccnc3N4)C2)CC1 [Compound 490] | 74.1 | 3310 | 473 | – | – | –
3 | CC#CC(=O)N1CC[C@@H](N2CC(c3cc4c(c(C5CC5)n3)OCc3c(N5CCOCC5)ccnc3N4)C2)C1 (single isomer, unassigned) [Compound 425] | 200 | > 10000 | 255 | 0.0971 | 2.48e-05 | –
4 | CC#CC(=O)N1CCC(N2CC(c3cc4c(c(C#N)n3)OCc3c(-c5cnn(C)c5)ccnc3N4)C2)C1 (stereo not drawn) [Compound 529] | 1740 | > 10000 | 409 | 0.0408 | 1.66e-05 | –
5 | CC#CC(=O)N1CCC(N2CCC(c3cc4c(c(C)n3)OCc3c(N5CCOCC5)ccnc3N4)CC2=O)CC1 (stereo not drawn) [Compound 484] | 141 | > 10000 | 289 | – | – | –
6 | C=CC(=O)N1CC(n2cc(-c3cc(C)c4c(c3)Nc3nccc(N5CCOCC5)c3CO4)cn2)C1 [Compound 190] | 33.9 | ~8910 | – | – | – | kinact/KI [3, 7]: 1250 M⁻¹ s⁻¹
7 | C=CC(=O)N1CC[C@@H](N2CC(c3cc4c(c(C)n3)O[C@H](C)c3c(N5CCOCC5)ccnc3N4)C2)C1 (single isomer, unassigned) [Compound 457] | 91.2 | > 10000 | 485 | 0.214 | 0.000104 | –
8 | C#CCCN(C)C/C=C/C(=O)N1CC(N2CCC(c3ccc4c(c3)Nc3nccc(C5CCOCC5)c3C(C)O4)CC2)C1 (stereo not drawn) [Compound 147] | 288 | > 10000 | 2100 | 0.0278 | 5.84e-05 | –
9 | C=CC(=O)N1CC[C@@H](N2CCC(c3cc4c(c(C)n3)OCc3c(N5CCOCC5)ccnc3N4)CC2)C1 (single isomer, unassigned) [Compound 184] | 32.4 | > 10000 | 1350 | 0.0446 | 6.03e-05 | –
10 | C=CC(=O)N1CC[C@H](N2CC(c3cc4c(c(C)n3)OCc3c(-c5cnn(C)c5)ccnc3N4)C2)[C@H](F)C1 (mixture of isomers) [Compound 213] | 251 | > 10000 | 183 | 0.267 | 4.9e-05 | –
11 | CC#CC(=O)N1CC[C@@H](N2CC(c3cc(C)c4c(c3)Nc3nccc(N5CCOCC5)c3[C@H](C)O4)C2)C1 (single isomer, unassigned) [Compound 284] | 2040 | > 10000 | 17.4 | 2 | 3.49e-05 | –
12 | C=CC(=O)N1CC(N2CCC(c3ccc4c(c3)Nc3ncc(Cl)c(N5CCOCC5)c3CO4)CC2)C1 [Compound 13] | 135 | > 10000 | – | – | – | kinact/KI [3, 8]: 1040 M⁻¹ s⁻¹
13 | C=CC(=O)N1CC[C@@H](N2CC(c3cc(C)c4c(c3)Nc3nccc(N5CCOCC5)c3[C@@H](C)O4)C2)C1 (single isomer, unassigned) [Compound 398] | 30.2 | 6170 | – | – | – | kinact/KI [3, 7]: 1630 M⁻¹ s⁻¹
14 | CC#CC(=O)N1CC[C@@H](N2CC(c3cc4c(c(C5CC5)n3)O[C@H](C)c3c(N5CCOCC5)ccnc3N4)C2)C1 (single isomer, unassigned) [Compound 464] | 7590 | > 10000 | 5.64 | 4.03 | 2.27e-05 | –
15 | C=CC(=O)N1CC(N2CCO[C@H](c3cc(C)c4c(c3)Nc3nccc(C5CCOCC5)c3CO4)CC2)C1 (single isomer, unassigned) [Compound 219] | 200 | > 10000 | 206 | 0.311 | 6.39e-05 | –
16 | C=CC(=O)N1CC(N2CC(c3cc4c(c(C)n3)O[C@H](C)c3c(N5CCOCC5)ccnc3N4)C2)C1 (single isomer, unassigned) [Compound 343] | – | – | – | 0.0503 | – | CDK7_A549 Wild-type CDK7 (pIC50) [1]: 7.15; CDK7 (20 nM enz.) (kinact, s^−1) ([3]; 20 nM enzyme): 5.902e-05 s⁻¹; CDK7 (20 nM enz.) (kinact/KI, M^−1*s^−1) ([3]; 20 nM enzyme): 1172.91 M⁻¹ s⁻¹; CDK7_A549 mutant hCDK7(pIC50) [2]: <5
17 | C=CC(=O)N1CC(N2CCC(c3cc(F)c4c(c3)Nc3nccc(-c5cnn(C)c5)c3CO4)CC2)C1 [Compound 189] | – | – | – | – | – | CDK7_A549 Wild-type CDK7 (pIC50) [1]: 7.37; kinact/KI [3, 7]: 1440 M⁻¹ s⁻¹; CDK7_A549 mutant hCDK7(pIC50) [2]: <5

Row | SMILES | IC50 [1] [nM] | IC50 [2] [nM] | kinact/KI [3, 4] [M⁻¹ s⁻¹] | Ki [3, 5] [µM] | kinact [3, 6] [s⁻¹] | other results
18 | C=CC(=O)N1CC(N2CC[C@@H](c3ccc4c(c3)Nc3nccc(N5CCOCC5)c3CO4)[C@H](O)C2)C1 (mixture of isomers) [Compound 72] | 589 | > 10000 | 166 | 0.412 | 6.82e-05 | –
19 | CC#CC(=O)N1CC[C@H](N2CC(c3cc(C)c4c(c3)Nc3nccc(N5CCOCC5)c3[C@@H](C)O4)C2)C1 (single isomer, unassigned) [Compound 288] | 129 | 10000 | 619 | 0.0411 | 2.54e-05 | –
20 | C=CC(=O)N1CC(N2CCCC(c3ccc4c(c3)Nc3nccc(N5CCOCC5)c3CO4)CC2)C1 (stereo not drawn) [Compound 42] | 123 | > 10000 | – | – | – | Ki [3, 9]: 0.0811 µM; kinact [3, 10]: 6.17e-05 s⁻¹; kinact/KI [3, 8]: 761 M⁻¹ s⁻¹
21 | C=CC(=O)N1CC[C@H](N2CC(c3cc4c(c(C5CC5)n3)O[C@@H](C)c3c(N5CCOCC5)ccnc3N4)C2)C1 (single isomer, unassigned) [Compound 466] | 123 | > 10000 | 1630 | 0.0307 | 5.02e-05 | –
22 | C=CC(=O)N1CCC(N2CC(c3cc(Cl)c4c(c3)Nc3nccc(-c5cnn(C)c5)c3CO4)C2)CC1 [Compound 85] | 81.3 | 4370 | – | – | – | kinact/KI [3, 7]: 608 M⁻¹ s⁻¹
23 | C=CC(=O)N1CC(N2CC(c3cc(C)c4c(c3)Nc3nccc(C5CCOCC5)c3[C@@H](C)O4)C2)C1 (single isomer, unassigned) [Compound 251] | 43.7 | > 10000 | – | – | – | kinact/KI [3, 7]: 1110 M⁻¹ s⁻¹
24 | C=CC(=O)N1CC(N2CCC(c3cc(Cl)c4c(c3)Nc3nccc(C5CCOCC5)c3CO4)CC2)C1 [Compound 119] | – | – | – | – | – | CDK7_A549 Wild-type CDK7 (pIC50) [1]: 7.42; CDK7 (20 nM enz.) (kobs/[I], M^−1*s^−1) ([3]; 20 nM enzyme): 1611.37 M⁻¹ s⁻¹; CDK7_A549 mutant hCDK7(pIC50) [2]: <5
25 | C=CC(=O)N1CC(N2CCN(c3cc4c(c(C)n3)OCc3c(N5CCOCC5)ccnc3N4)CC2)C1 [Compound 237] | 132 | > 10000 | 468 | 0.0731 | 3.42e-05 | –
26 | C=CC(=O)N1CC(N2CCC(c3ccc4c(c3)Nc3nccc(N5CCOC[C@@H]5C)c3CO4)CC2)C1 [Compound 63] | 288 | > 10000 | 885 | 0.0857 | 7.59e-05 | –
27 | C=CC(=O)N1CC(N2CCC(O)(c3ccc4c(c3)Nc3nccc(N5CCOCC5)c3CO4)CC2)C1 [Compound 80] | 417 | > 10000 | 740 | 0.0563 | 4.16e-05 | –
28 | C=CC(=O)N1CC(N2CCN(c3cc4c(cn3)OCc3c(N5CCOCC5)ccnc3N4)CC2)C1 [Compound 248] | 174 | > 10000 | 277 | 0.307 | 8.51e-05 | –
29 | C=CC(=O)N1CC[C@H]2CN(c3ccc4c(c3)Nc3nccc(N5CCOCC5)c3CO4)CC[C@@H]21 (racemic) [Compound 48] | 1620 | > 10000 | – | – | – | Ki [3, 9]: 0.325 µM; kinact [3, 10]: 4.98e-05 s⁻¹; kinact/KI [3, 8]: 153 M⁻¹ s⁻¹
30 | C=CC(=O)Nc1ccc(-c2ccc3c(c2)Nc2nccc(N4CCOCC4)c2CO3)cn1 [Compound 178] | 22.4 | 6760 | – | – | – | kinact/KI [3, 7]: 1910 M⁻¹ s⁻¹
31 | CC#CC(=O)N1CCC(N2CC(c3cc4c(c(-c5ncc[nH]5)n3)OCc3c(N5CCOCC5)ccnc3N4)C2)CC1 [Compound 364] | 162 | > 10000 | – | – | – | kinact/KI [3, 7]: 464 M⁻¹ s⁻¹
32 | CC#CC(=O)N1CC(N2CC(c3cc4c(c(C)n3)O[C@H](C)c3c(N5CCOCC5)ccnc3N4)C2)C1 (single isomer, unassigned) [Compound 355] | 195 | > 10000 | 166 | 0.211 | 3.51e-05 | –
33 | C=CC(=O)N1CC(N2CCO[C@@H](c3cc(C)c4c(c3)Nc3nccc(C5CCOCC5)c3CO4)CC2)C1 (single isomer, unassigned) [Compound 221] | 282 | > 10000 | 152 | 0.512 | 7.79e-05 | –
